Experimental data as given in US9000010B2, “Alkyl-heterocycle carbamate derivatives, their preparation and their therapeutic application” (Sanofi, priority 2010, dated 2015).
Where a name gives a salt, the structure may show the parent alone.

Molecular target: T1, FAAH (Fatty Acid Amide Hydrolase) (Mus musculus, UniProt O08914)
T1 construct: The membrane homogenates are prepared at the time of use by homogenization of the tissues; from tissue; host or cells: mouse brain (minus the cerebellum), membrane homogenate
T1 sequence (O08914 1-579): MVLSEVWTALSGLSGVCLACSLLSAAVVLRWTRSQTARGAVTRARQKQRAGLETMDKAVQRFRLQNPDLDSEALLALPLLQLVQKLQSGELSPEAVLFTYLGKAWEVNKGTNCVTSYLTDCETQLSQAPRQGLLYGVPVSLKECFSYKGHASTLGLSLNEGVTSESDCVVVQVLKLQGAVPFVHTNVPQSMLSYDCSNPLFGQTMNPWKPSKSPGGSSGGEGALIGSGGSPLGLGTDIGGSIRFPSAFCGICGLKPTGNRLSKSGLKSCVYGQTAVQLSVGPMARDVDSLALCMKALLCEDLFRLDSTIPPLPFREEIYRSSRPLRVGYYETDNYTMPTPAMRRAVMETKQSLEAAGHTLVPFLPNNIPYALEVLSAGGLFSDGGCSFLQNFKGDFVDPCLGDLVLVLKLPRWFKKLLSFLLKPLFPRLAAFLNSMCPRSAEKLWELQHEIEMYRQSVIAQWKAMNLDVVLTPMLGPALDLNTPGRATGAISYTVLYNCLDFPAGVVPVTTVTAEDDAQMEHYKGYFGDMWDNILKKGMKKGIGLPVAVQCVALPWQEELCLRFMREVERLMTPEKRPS
Assay: Radioenzymatic test of FAAH inhibition: hydrolysis of anandamide [ethanolamine 1-3H] by mouse brain membrane homogenates
Type: biochemical
Settings: mouse brain membrane homogenate; preincubation 20 min at 25° C.; anandamide 10 μM; read-out: CI50 (concentration which inhibits the control enzymatic activity of FAAH by 50%)
Description: The compounds of the invention form the subject of pharmacological trials which make it possible to determine their inhibitory effect on the enzyme FAAH (Fatty Acid Amide Hydrolase).
Thus, mouse brains (minus the cerebellum) are removed and stored at −80° C. The membrane homogenates are prepared at the time of use by homogenization of the tissues using a Precellys® device in the reaction buffer (Tris-HCl 10 mM pH=8, NaCl 150 mM and ethylenediaminetetraacetic acid (EDTA) 1 mM). The enzymatic reaction is carried out in 96-well MultiScreen filtration plates in a final volume of 70 μl. Reaction buffer supplemented with bovine serum albumin free from fatty acids (BSA, 1 mg/ml) is used for the enzymatic reaction, the dilution of the compounds and the dilution of the anandamide [ethanolamine 1-^3H]. Reaction buffer comprising the BSA (43 μl/well), the diluted test compounds at different concentrations (7 μl/well comprising 1% of DMSO) and the membrane preparation (10 μl/well, i.e. 200 μg of tissue per trial) are successively added to the wells. After preincubating the compounds with the enzyme at 25° C. for 20 minutes, the reaction is initiated by the addition of anandamide [ethanolamine 1-^3H] (specific activity of 15-20 Ci/mmol) diluted with cold anandamide (10 μl/well, final concentration of 10 μM, 0.01 μCi, per trial). After incubating at 25° C. for 20 minutes, the enzymatic reaction is halted by addition of a […] active charcoal solution prepared in a 1.5M NaCl and 0.5M HCl buffer (50 μl/well). The mixture is stirred for 10 minutes and then the aqueous phase comprising the [1-^3H]ethanolamine is recovered by filtration under vacuum and counted by liquid scintillation.

**Q.** Which IC50 does the source give for `O=C(OCc1nccs1)N1CCC(CCOc2ccc(C3CCCC3)cc2)CC1` [No. 38, Thiazol-2-ylmethyl 4-[2-(4-cyclopentylphenoxy)-ethyl]piperidine-1-carboxylate] here?
**A.** 14 nM

**Q.** With `O=C(OCc1nccs1)N1CCC(CCOc2ccccc2-c2nc3ccccc3o2)CC1` [No. 39, Thiazol-2-ylmethyl 4-[2-(2-{benzoxazol-2-yl}-phenoxy)ethyl]piperidine-1-carboxylate] as the compound, how does the IC50 read?
**A.** 13 nM

**Q.** For `O=C(OCc1nccs1)N1CCC(CCOc2ccc(Cc3ccccc3)cc2)CC1` [No. 49, Thiazol-2-ylmethyl 4-[2-(4-benzylphenoxy)ethyl]-piperidine-1-carboxylate], which IC50 is on record?
**A.** 19 nM

**Q.** With `CCCCOc1cccc(OCCC2CCN(C(=O)OCc3nccs3)CC2)c1` [No. 60, Thiazol-2-ylmethyl 4-[2-(3-butoxyphenoxy)ethyl]-piperidine-1-carboxylate] as the compound, how does the IC50 read?
**A.** 95 nM

Test system: not given
Assay: not given
Settings: not given

**Q.** Which melting point does the source give for `O=C(OCc1cscn1)N1CCC(CCOc2ccc3ncccc3c2)CC1` (as salt: HCl) [No. 19, Thiazol-4-ylmethyl 4-[2-(quinolin-6-yloxy)ethyl]-piperidine-1-carboxylate] here?
**A.** 140 to 150 °C

**Q.** For `O=C(OCc1cscn1)N1CCC(CCOc2ccc3cnccc3c2)CC1` (as salt: HCl) [No. 20, Thiazol-4-ylmethyl 4-[2-(isoquinolin-6-yloxy)ethyl]-piperidine-1-carboxylate], which melting point is on record?
**A.** 150 to 160 °C

**Q.** Which melting point does the source give for `COc1ccc2cc(OCC3CCN(C(=O)OCc4cscn4)C3)ccc2c1` (racemic) [No. 11, Thiazol-4-ylmethyl (+/−)-3-(6-methoxynaphth-2-yloxymethyl)pyrrolidine-1-carboxylate] here?
**A.** 128 to 130 °C

**Q.** For `O=C(OCc1cscn1)N1CCC(COc2ccc(Cl)c(Cl)c2)C1` (racemic) [No. 13, Thiazol-4-ylmethyl (+/−)-3-(3,4-dichlorophenoxymethyl)pyrrolidine-1-carboxylate], which melting point is on record?
**A.** 78 to 80 °C

**Q.** With `O=C(OCc1cscn1)N1CCC(COc2ccc(Cl)c3ccccc23)C1` (racemic) [No. 16, Thiazol-4-ylmethyl (+/−)-3-(4-chloronaphth-1-yloxymethyl)pyrrolidine-1-carboxylate] as the compound, how does the melting point read?
**A.** 84 to 86 °C

**Q.** For `O=C(OCc1cscn1)N1CCC(COc2ccc3ccccc3c2)C1` (racemic) [No. 17, Thiazol-4-ylmethyl 3-(naphth-2-yloxymethyl)pyrrolidine-1-carboxylate], which melting point is on record?
**A.** 90 to 92 °C

**Q.** For `O=C(OCc1cscn1)N1CCC(COc2ccc(-c3ccc(F)cc3)cc2)C1` (racemic) [No. 22, Thiazol-4-ylmethyl 3-(4′-fluorobiphenyl-4-yloxymethyl)-pyrrolidine-1-carboxylate], which melting point is on record?
**A.** 115 to 117 °C

**Q.** For `O=C(OCc1cscn1)N1CCC(COc2ccc3c(Cl)cccc3c2)C1` (racemic) [No. 23, Thiazol-4-ylmethyl (+/−)-3-(5-chloronaphth-2-yloxymethyl)pyrrolidine-1-carboxylate], which melting point is on record?
**A.** 89 to 91 °C

**Q.** For `O=C(OCc1cscn1)N1CCC(COc2cccc(OC(F)(F)F)c2)C1` (racemic) [No. 24, Thiazol-4-ylmethyl (+/−)-3-(3-{trifluoromethoxy}-phenoxymethyl)pyrrolidine-1-carboxylate], which melting point is on record?
**A.** 54 to 56 °C

**Q.** For `CC(C)(c1ccccc1)c1ccc(OCC2CCN(C(=O)OCc3cscn3)C2)cc1` (racemic) [No. 25, Thiazol-4-ylmethyl (+/−)-3-[4-(1-methyl-1-phenyl-ethyl)phenoxymethyl]pyrrolidine-1-carboxylate], which melting point is on record?
**A.** 76 to 78 °C

**Q.** For `O=C(OCc1cscn1)N1CCC(COc2ccc3cnccc3c2)C1` (racemic) [No. 27, Thiazol-4-ylmethyl (+/−)-3-(isoquinolin-6-yloxymethyl)pyrrolidine-1-carboxylate], which melting point is on record?
**A.** 122 to 124 °C

**Q.** With `O=C(OCc1cscn1)N1CCC(COc2ccc3cccnc3c2)C1` (racemic) [No. 28, Thiazol-4-ylmethyl (+/−)-3-(quinolin-7-yloxymethyl)-pyrrolidine-1-carboxylate] as the compound, how does the melting point read?
**A.** 94 to 96 °C

**Q.** With `O=C(OCc1cscn1)N1CCC(COc2ccc3ccncc3c2)C1` (racemic) [No. 29, Thiazol-4-ylmethyl (+/−)-3-(isoquinolin-7-yloxymethyl)pyrrolidine-1-carboxylate] as the compound, how does the melting point read?
**A.** 121 to 123 °C

**Q.** For `O=C(OCc1cscn1)N1CCC(COc2ccc(Cl)c(C(F)(F)F)c2)C1` (racemic) [No. 30, Thiazol-4-ylmethyl (+/−)-3-(4-chloro-3-{trifluoromethyl}phenoxymethyl)pyrrolidine-1-carboxylate], which melting point is on record?
**A.** 60 to 62 °C

**Q.** For `O=C(OCc1cscn1)N1CCC(COc2ccc3c(F)cccc3c2)C1` (racemic) [No. 31, Thiazol-4-ylmethyl (+/−)-3-(5-fluoronaphth-2-yloxymethyl)pyrrolidine-1-carboxylate], which melting point is on record?
**A.** 76 to 78 °C

**Q.** For `O=C(OCc1nccs1)N1CCC(COc2ccc(-c3ccc(F)cc3)cc2)C1` (racemic) [No. 197, Thiazol-2-ylmethyl (+/−)-3-(4′-fluorobiphenyl-4-yloxymethyl)pyrrolidine-1-carboxylate], which melting point is on record?
**A.** 81 to 83 °C

**Q.** With `COc1ccc2cc(OCC3CCN(C(=O)OCc4cc(C(N)=O)no4)C3)ccc2c1` (racemic) [No. 201, 3-Carbamoylisoxazol-5-ylmethyl (+/−)-3-(6-methoxynaphth-2-yloxymethyl)pyrrolidine-1-carboxylate] as the compound, how does the melting point read?
**A.** 193 to 195 °C

**Q.** With `O=C(OCc1nccs1)N1CC[C@@H](COc2ccc3ccccc3c2)C1` (single isomer, unassigned) [No. 194] as the compound, how does the melting point read?
**A.** 100 to 112 °C

**Q.** With `O=C(OCc1nccs1)N1CC[C@H](COc2ccc3ccccc3c2)C1` (single isomer, unassigned) [No. 195] as the compound, how does the melting point read?
**A.** 112 to 114 °C

**Q.** For `O=C(OCc1cscn1)N1CCC(CCOc2ccc(Cl)cc2)CC1` [No. 5, Thiazol-4-ylmethyl 4-[2-(4-chlorophenoxy)ethyl]-piperidine-1-carboxylate], which melting point is on record?
**A.** 53 to 55 °C

**Q.** Which melting point does the source give for `O=C(OCc1cncs1)N1CCC(CCOc2ccc(F)cc2)CC1` [No. 6, Thiazol-5-ylmethyl 4-[2-(4-fluorophenoxy)ethyl]-piperidine-1-carboxylate] here?
**A.** 96 to 98 °C

**Q.** Which melting point does the source give for `O=C(OCc1cncs1)N1CCC(CCOc2ccc(Cl)cc2)CC1` [No. 7, Thiazol-5-ylmethyl 4-[2-(4-chlorophenoxy)ethyl]-piperidine-1-carboxylate] here?
**A.** 93 to 97 °C

**Q.** With `O=C(OCc1cncs1)N1CCC(CCOc2ccc(C(F)(F)F)cc2)CC1` [No. 8, Thiazol-5-ylmethyl 4-[2-(4-{trifluoromethyl}phenoxy)-ethyl]piperidine-1-carboxylate] as the compound, how does the melting point read?
**A.** 47 to 49 °C

**Q.** For `COc1ccc2ccc(OCCC3CCN(C(=O)OCc4cscn4)CC3)cc2c1` [No. 9, Thiazol-4-ylmethyl 4-[2-(7-methoxynaphth-2-yloxy)ethyl]-piperidine-1-carboxylate], which melting point is on record?
**A.** 95 to 97 °C

**Q.** Which melting point does the source give for `N#Cc1ccc(OCCC2CCN(C(=O)OCc3cscn3)CC2)cc1` [No. 10, Thiazol-4-ylmethyl 4-[2-(4-cyanophenoxy)ethyl]-piperidine-1-carboxylate] here?
**A.** 108 to 110 °C

**Q.** For `COc1ccc2cc(OCCC3CCN(C(=O)OCc4cscn4)CC3)ccc2c1` [No. 14, Thiazol-4-ylmethyl 4-[2-(6-methoxynaphth-2-yloxy)-ethyl]piperidine-1-carboxylate], which melting point is on record?
**A.** 100 to 102 °C

**Q.** With `O=C(OCc1cscn1)N1CCC(CCOc2ccc3ccccc3c2)CC1` [No. 15, Thiazol-4-ylmethyl 4-[2-(naphth-2-yloxy)ethyl]-piperidine-1-carboxylate] as the compound, how does the melting point read?
**A.** 88 to 90 °C

**Q.** With `O=C(OCc1cscn1)N1CCC(CCOc2ccc(-c3ccc(F)cc3)cc2)CC1` [No. 18, Thiazol-4-ylmethyl 4-[2-(4′-fluorobiphenyl-4-yloxy)-ethyl]piperidine-1-carboxylate] as the compound, how does the melting point read?
**A.** 62 to 64 °C

**Q.** For `NC(=O)c1cc(COC(=O)N2CCC(CCOc3ccc(F)cc3)CC2)on1` [No. 198, 3-Carbamoylisoxazol-5-ylmethyl 4-[2-(4-fluorophenoxy)ethyl]piperidine-1-carboxylate], which melting point is on record?
**A.** 106 to 108 °C
